The text below walks through data of US10975114B2, “Bis 2′-5′-RR-(3′F-A)(3′F-A) cyclic dinucleotide compound and uses thereof” (ADURO BIOTECH, INC., priority 2017, dated 2021).

Assay [1] deals with T1, wild type hSTING (Homo sapiens, UniProt Q86WV6, H232R).
T1 construct: 6xHis-SUMO (with TEV site) (N, cleaved yes); made in house; host or cells: Rosetta2 (DE3) E. coli
Kind of assay: DSF Tm shift, purified hSTING WT (AA140-379). It is filed as binding. The note with it: 1 mg/ml STING AA140-379, ligand 1 mM. The protocol:
(§1) Cells were grown in lysogeny broth at 37° C. until a […] absorbance of 0.6 was reached. […] Cells were lysed using an S-450D sonifier (Emmerson industrial) on ice. […] Protein was aliquoted, flash frozen in liquid nitrogen and stored at −80° C. until use.
(§2) The protein is heated in the presence of a dye that binds to and fluoresces in hydrophobic environments. The protein is thermally denatured by heating resulting in increased dye binding to the unfolded protein and fluorescence. The temperature midpoint (Tm) of a proteins denaturation is established by calculating the half maximal value of the denaturation curve. The temperature midpoint of the protein in the presence of a ligand is directly related to the affinity of the ligand for the protein and therefore its ability to stabilize the protein at higher temperatures.

Assay [2] deals with THP1 cells (hSTING HAQ allele). The assay is described as follows: THP1-Dual IRF-3 luciferase reporter assay without digitonin. To be noted: 30 min compound incubation, overnight readout of secreted luciferase. Type of assay: cell-based, human. The protocol: Cells were washed with fresh media and incubated for 30 min at 37° C. with 5% CO2 with compounds in 3-fold titration steps from 2,000 to 0.0338 μM in PB buffer (50 mM 4-(2-hydroxyethyl)-1-piperazineethanesulfonic acid, 100 mM KCl, 3 mM MgCl2, 0.1 mM dithiothreitol, 85 mM sucrose, 1 mM ATP, 0.1 mM GTP and 0.2% bovine serum albumin). After 30 minutes, cells were washed and fresh RPMI media containing 10% FBS was added, and cells were incubated at 37° C. with 5% CO2. Cell culture supernatants from each sample were collected after overnight incubation, and 10 μl of the cell culture supernatants was added to 50 μl QUANTI-Luc reagent (Invivogen). Type I interferon activation was determined by measuring secreted luciferase levels on a SpectraMax M3 spectrophotometer (Molecular Devices). The EC50 value for the same compounds as tested in Example 4 was determined from the dose-response curve for the 10 concentrations from the serial dilution of the compounds in this assay.
A general note: Reporter assays use an easily measured gene product as a stand-in for the process of interest.

Assay [3] concerns the target T2, HAQ allele hSTING (Homo sapiens, UniProt Q86WV6, G230A/H232R/R293Q).
T2 construct: 6xHis-SUMO (with TEV site) (N, cleaved yes); made in house; host or cells: Rosetta2 (DE3) E. coli
Kind of assay: DSF Tm shift, purified hSTING HAQ allele (AA140-379). The note with it: 1 mg/ml STING AA140-379, ligand 1 mM. It is filed as binding. How it is done: as §1, §2

In assay [4] the target is T3, REF allele hSTING (Homo sapiens, UniProt Q86WV6).
T3 construct: 6xHis-SUMO (with TEV site) (N, cleaved yes); made in house; host or cells: Rosetta2 (DE3) E. coli
Kind of assay: DSF Tm shift, purified hSTING REF allele (AA140-379). To be noted: 1 mg/ml STING AA140-379, ligand 1 mM. Type of assay: binding. How it is done: as §1, §2

For assay [5], the target named is T4, hSTING WT (Homo sapiens, UniProt Q86WV6, H232R).
T4 construct: made in house; host or cells: BL21 Rosetta 2 (DE3) E. coli
The assay is described as follows: ITC binding assay, hSTING WT. The note with it: 25° C., protein 0.1 mM, ligand 0.35 mM. How it is done: (§3) The WT and REF proteins were similarly prepared for use in an ITC binding assay. Expression plasmids were transformed into BL21 Rosetta 2 (DE3) (EMD Millipore) E. coli cells for protein expression. 50 ml starter cultures were grown overnight in 2×YT supplemented with 50 μg/ml kanamycin and 30 μg/ml chloramphenicol. Multi-liter large scale cultures of the same growth media as the starter were inoculated at a ratio of 1:1,000 (V/V) and allowed to grow at 37° C. to an optical density of 0.6, cultures were then shifted to 18° C. Protein expression was induced by the addition of isopropyl β-D-1-thiogalactopyranoside to a final concentration of 0.3 mM. Protein expression was allowed to proceed for 18-24 hrs. Pelleted cells were resuspended in 50 mM Tris pH 7.5, 500 mM NaCl, 10% glycerol, 20 mM imidazole, 1 mM TCEP and complete protease inhibitor cocktail (Sigma). Cells were lysed by sonication (Branson) and insoluble material was removed by centrifugation. Proteins were purified on Ni-NTA resin and concentrated to >10 mg/ml. 6×H-SUMO-STING LBD was further purified by gel filtration chromatography using a High Load 26/600 Superdex 75 column (GE Healthcare) in a buffer of 20 mM Tris pH 7.5, 150 mM NaCl, 5% glycerol and 1 mM TCEP. Peak fractions were concentrated to between 10-15 mg/ml via ultrafiltration aliquoted and flash frozen in liquid nitrogen and stored at […]
The resulting amino acid sequence for the STING WT allele is as follows: • Allele Name: WT • Amino Acid Sequence:
(§4) Proteins were dialyzed overnight in 20 mM HEPES pH 7.5, 150 mM NaCl. Insoluble material was removed by centrifugation at 31,000×g. The invention compound 2′2′-RR-(3′F-A)(3′F-A) and comparison STING agonists 3′3′-RR-(2′F-A)(2′F-A); 2′3′-RR-(3′F-A)(2′F-A) were resuspended in dialysis buffer. The concentration of both the protein and ligands were checked by spectroscopy and adjusted if necessary.
(§5) STING protein was added to the ITC sample cell at a final concentration of 0.1 mM. The CDN ligand was at a final concentration of 0.35 mM in the syringe. […]

Assay [6] concerns the target T5, hSTING REF allele (Homo sapiens, UniProt Q86WV6).
T5 construct: made in house; host or cells: BL21 Rosetta 2 (DE3) E. coli
The assay is described as follows: ITC binding assay, hSTING REF allele. To be noted: 25° C., protein 0.1 mM, ligand 0.35 mM. The protocol: as §3
The resulting amino acid sequences for the STING REF allele is as follows: • Allele Name: REF • Amino Acid Sequence:
as §4, §5

Usually EC50 stands for the concentration that produces a half-maximal response. A high value points to a less potent agent. Turning to `Nc1ncnc2c1ncn2[C@@H]1O[C@@H]2CO[P@@](=O)(S)O[C@@H]3[C@H](O)[C@@H](CO[P@@](=O)(S)O[C@@H]1[C@@H]2O)O[C@H]3n1cnc2c(N)ncnc21` [2′2′-RR-(A)(A), (1R,3R,6R,8R,9R,11R,14R,16R,17R,18R)-8,16-bis(6-amino-9H-purin-9-yl)-17,18-dihydroxy-3,11-dimercapto-2,4,7,10,12,15-hexaoxa-3,11-diphosphatricyclo[12.2.1.1^6,9]octadecane 3,11-dioxide], the “hSTING Tm Shift WT” value in assay [1] amounted to 3.4 °C. The same compound registered a concentration for a half-maximal effect (EC50) in assay [2] (Homo sapiens, THP-1, 0.5 h) of over 150 µM. Also, in assay [3], the “hSTING Tm Shift HAQ” value is 5.1 °C. In addition, the “hSTING Tm Shift REF” value in assay [4] amounted to 3.6 °C.
Consider `Nc1nc2c(ncn2[C@@H]2O[C@@H]3COP(=O)(O)O[C@H]4[C@@H](O)[C@H](n5cnc6c(N)ncnc65)O[C@@H]4COP(=O)(O)O[C@@H]2[C@@H]3O)c(=O)[nH]1` [2′3′-(G)(A)], for which the EC50 in assay [2] is over 150 µM.
For orientation: Kd means a measure of binding affinity in units of concentration. Lower therefore signals tighter binding. For the compound `Nc1ncnc2c1ncn2[C@@H]1O[C@@H]2CO[P@@](=O)(S)O[C@@H]3[C@H](F)[C@@H](OC[P@@](=O)(S)O[C@H]2[C@H]1F)O[C@H]3n1cnc2c(N)ncnc21` [2′3′-RR-(3′F-A)(2′F-A), dithio-[Rp,Rp]-cyclic-[3′F-A(2′,5′)p-2′F-A(3′,5′)p]], the “hSTING Tm Shift WT” value in assay [1] was found to be 14.5 °C. In addition, the values for the Kd in assay [5] and in assay [6] were 0.109 µM and 0.333 µM, respectively. Besides, the response in assay [2] (Homo sapiens, THP-1, 0.5 h) was half-maximal at 4.5 µM (EC50). Moreover, the “hSTING Tm Shift HAQ” value in assay [3] was determined as 26 °C. For the same compound, the “hSTING Tm Shift REF” value in assay [4] worked out at 10.5 °C.
Consider `Nc1ncnc2c1ncn2[C@@H]1O[C@@H]2CO[P@@](=O)(S)O[C@H]3[C@@H](F)[C@H](n4cnc5c(N)ncnc54)O[C@@H]3CO[P@@](=O)(S)O[C@H]2[C@H]1F` [3′3′-RR-(2′F-A)(2′F-A), (2R,3R,3aR,5R,7aR,9R,10R,10aR,12R,14aR)-2,9-bis(6-amino-9H-purin-9-yl)-3,10-difluoro-5,12-dimercaptooctahydro-2H,7H-difuro[3,2-d:3′,2′-j][1,3,7,9]tetraoxa[2,8]diphosphacyclododecine 5,12-dioxide], for which the Kd in assay [5] turned out to be 0.074 µM; in assay [6], 0.591 µM. For the same compound, in assay [2] (Homo sapiens, THP-1, 0.5 h), the EC50 came to 15.6 µM.
